Test results reported in ChEMBL document CHEMBL6087436, “The novel β-hairpin antimicrobial peptide D-G(RF)3 demonstrates exceptional antibacterial efficacy” (Eur J Med Chem, 2025).
Activity calls are given as the source filed them. The calls are words filed in the database; no cut-off is given here. Where a SMILES comes first, the peptide text is derived from it. Bridges are numbered along the chain shown (N, C = ends). [ ]: non-standard residue; d: D form. The star is where a group is joined. X1 = CC[C@H](C)CCCCC(=O)*; dDab = NCC[C@@H](N)C(=O)O; Dab = NCC[C@H](N)C(=O)O

Columns and labels:
Staphylococcus aureus [1] = test: Inhibition of biofilm formation in Staphylococcus aureus ATCC 25923 incubated for 24 hrs by crystal violet staining based analysis; type: functional, organism-based; conditions: dose 1-32 µM
Escherichia coli [2] = test: Inhibition of biofilm formation in Escherichia coli ATCC 25922 incubated for 24 hrs by crystal violet staining based analysis; type: functional, organism-based; conditions: dose 1-32 µM
Klebsiella pneumoniae [3] = test: Inhibition of biofilm formation in Klebsiella pneumoniae ATCC 700603 incubated for 24 hrs by crystal violet staining based analysis; type: functional, organism-based; conditions: dose 1-32 µM
Pseudomonas aeruginosa [4] = test: Inhibition of biofilm formation in Pseudomonas aeruginosa ATCC 27853 incubated for 24 hrs by crystal violet staining based analysis; type: functional, organism-based; conditions: dose 1-32 µM
Escherichia coli [5] = test: Inhibition of biofilm formation in Escherichia coli ATCC 25922 at >= 2 uM incubated for 24 hrs by crystal violet staining based analysis; type: functional, organism-based
Escherichia coli [6] = test: Inhibition of biofilm formation in Escherichia coli ATCC 25922 at 1 uM incubated for 24 hrs by crystal violet staining based analysis; type: functional, organism-based
Klebsiella pneumoniae [7] = test: Inhibition of biofilm formation in Klebsiella pneumoniae ATCC 700603 at 1 uM incubated for 24 hrs by crystal violet staining based analysis; type: functional, organism-based
Cell membrane [8] = test: Induction of cell membrane permeability in Escherichia coli assessed as rough convex surface at 2 times MIC by SEM analysis; type: subcellular
Escherichia coli [9] = test: Antimicrobial activity against Escherichia coli at 2 times MIC in presence of LPS preincubated for 1 hr followed by bacterial addition and measured after 6 hrs by LPS competitive inhibition assay; type: functional, organism-based
Cell membrane [10] = test: Induction of Outer membrane permeabilization in Escherichia coli at 8 uM by NPN-dye based fluorescence analysis; type: subcellular
Klebsiella pneumoniae [11] = test: In vivo antibacterial activity against Klebsiella pneumoniae ATCC 700603 infected in male Balb/c mouse lung infection model assessed as reduction in alveoli expansion at 10 mg/kg, ip measured after 24 hrs by H and E staining based analysis; type: functional, organism-based
Klebsiella pneumoniae [12] = test: In vivo antibacterial activity against Klebsiella pneumoniae ATCC 700603 infected in male Balb/c mouse lung infection model assessed as reduction in serous exudation of alveolar cavities at 10 mg/kg, ip measured after 24 hrs by H and E staining based analysis; type: functional, organism-based
Klebsiella pneumoniae [13] = test: In vivo antibacterial activity against Klebsiella pneumoniae ATCC 700603 infected in male Balb/c mouse lung infection model assessed as reduction in crumpling alveoli at 10 mg/kg, ip measured after 24 hrs by H and E staining based analysis; type: functional, organism-based
Klebsiella pneumoniae [14] = test: In vivo antibacterial activity against Klebsiella pneumoniae ATCC 700603 infected in male Balb/c mouse lung infection model assessed as increase on compensatory dilation at 5 mg/kg, ip and measured after 24 hrs; type: functional, organism-based
Staphylococcus aureus [15] = test: Antibacterial activity against Staphylococcus aureus ATCC 25923 assessed as inhibition of bacterial growth incubated for 18 hrs by microbroth dilution assay; type: functional
Bacillus subtilis = test: Antibacterial activity against Bacillus subtilis ATCC 23857 assessed as inhibition of bacterial growth incubated for 18 hrs by microbroth dilution assay; type: functional
[16] = tested on: Staphylococcus epidermidis; test: Antibacterial activity against Staphylococcus epidermidis ATCC 12228 assessed as inhibition of bacterial growth incubated for 18 hrs by microbroth dilution assay; type: functional
Klebsiella pneumoniae [17] = test: Antibacterial activity against Klebsiella pneumoniae ATCC 700603 assessed as inhibition of bacterial growth incubated for 18 hrs by microbroth dilution assay; type: functional
Escherichia coli [18] = test: Antibacterial activity against Escherichia coli ATCC 25922 assessed as inhibition of bacterial growth incubated for 18 hrs by microbroth dilution assay; type: functional
Pseudomonas aeruginosa [19] = test: Antibacterial activity against Pseudomonas aeruginosa ATCC 27853 assessed as inhibition of bacterial growth incubated for 18 hrs by microbroth dilution assay; type: functional
Staphylococcus aureus [20] = test: Antibacterial activity against Staphylococcus aureus ATCC 25923 assessed as fold decrease in presence of 150 mM NaCl; type: functional
Staphylococcus aureus [21] = test: Antibacterial activity against Staphylococcus aureus ATCC 25923 assessed as fold change in activity in presence of 2 mM CaCl2; type: functional
Staphylococcus aureus [22] = test: Antibacterial activity against Staphylococcus aureus ATCC 25923 assessed as fold change in activity in presence of 1 mM MgCl2; type: functional
Pseudomonas aeruginosa [23] = test: Induction of drug resistance in Pseudomonas aeruginosa ATCC 27853 assessed as fold increase in MIC incubated for 24 hrs and measured under 40 passages; type: functional
Staphylococcus aureus [24] = test: Additive antibacterial activity against Staphylococcus aureus assessed as fractional inhibitory concentration index in presence of ciprofloxacin incubated for 18 hrs by checkerboard method; type: functional
Klebsiella pneumoniae [25] = test: Bactericidal activity against Klebsiella pneumoniae ATCC 700603 assessed as bacterial eradication by measuring bacterial counts at 2 times MIC measured after 30 mins by Time killing assay relative to control; type: functional; conditions: 0.5 h
Staphylococcus aureus [26] = test: Synergistic antibacterial activity against Staphylococcus aureus assessed as fractional inhibitory concentration index in presence of bacitracin incubated for 18 hrs by checkerboard method; type: functional
Escherichia coli [27] = test: Synergistic antibacterial activity against Escherichia coli assessed as fractional inhibitory concentration index in presence of kanamycin incubated for 18 hrs by checkerboard method; type: functional
Escherichia coli [28] = test: Synergistic antibacterial activity against Escherichia coli assessed as fractional inhibitory concentration index in presence of rifampin incubated for 18 hrs by checkerboard method; type: functional
Klebsiella pneumoniae [29] = test: Additive antibacterial activity against Klebsiella pneumoniae assessed as fractional inhibitory concentration index in presence of kanamycin incubated for 18 hrs by checkerboard method; type: functional
Klebsiella pneumoniae [30] = test: Synergistic antibacterial activity against Klebsiella pneumoniae assessed as fractional inhibitory concentration index in presence of rifampin incubated for 18 hrs by checkerboard method; type: functional
Pseudomonas aeruginosa [31] = test: Synergistic antibacterial activity against Pseudomonas aeruginosa assessed as fractional inhibitory concentration index in presence of imipenem incubated for 18 hrs by checkerboard method; type: functional
Pseudomonas aeruginosa [32] = test: Synergistic antibacterial activity against Pseudomonas aeruginosa assessed as fractional inhibitory concentration index in presence of rifampin incubated for 18 hrs by checkerboard method; type: functional
Pseudomonas aeruginosa [33] = test: Synergistic antibacterial activity against Pseudomonas aeruginosa assessed as fractional inhibitory concentration index in presence of polymyxin B incubated for 18 hrs by checkerboard method; type: functional
Klebsiella pneumoniae [34] = test: In vivo antibacterial activity against Klebsiella pneumoniae ATCC 700603 infected in male Balb/c mouse lung infection model assessed as reduction in pulmonary bacterial load at 5 mg/kg, ip measured after 24 hrs (reference value: 3.05 x 10^9 CFU/g); type: functional
Klebsiella pneumoniae [35] = test: In vivo antibacterial activity against Klebsiella pneumoniae ATCC 700603 infected in male Balb/c mouse lung infection model assessed as reduction in pulmonary bacterial load at 10 mg/kg, ip measured after 24 hrs (reference value: 3.05 x 10^9 CFU/g); type: functional
[36] = Acute toxicity in male balb/c mouse assessed as lethal dose at ip administration; type: organism-based; conditions: in vivo
[37] = Acute toxicity in male balb/c mouse assessed as alveolar shrinkage in lung administered intraperitoneally by H and E staining based analysis; type: tissue-based; conditions: in vivo, ip
[38] = Acute toxicity in male balb/c mouse assessed as inflammatory cell infiltration in lung administered intraperitoneally by H and E staining based analysis; type: tissue-based; conditions: in vivo, ip
[39] = Acute toxicity in male balb/c mouse assessed as respiratory depression by measuring tissue bleeding in lung administered intraperitoneally by H and E staining based analysis; conditions: in vivo, ip
[40] = Acute toxicity in IP dosed male balb/c mouse assessed as animal death; type: organism-based; conditions: in vivo

Which inhibition (Staphylococcus aureus [1]) does the source give for `CC(C)CCCCC(=O)N[C@@H](CCN)C(=O)N[C@H](C(=O)N[C@@H](CCN)C(=O)N[C@H]1CCNC(=O)[C@H]([C@@H](C)O)NC(=O)[C@H](CCN)NC(=O)[C@H](CCN)NC(=O)[C@H](CC(C)C)NC(=O)[C@@H](Cc2ccccc2)NC(=O)[C@@H](CCN)NC1=O)[C@@H](C)O.CC[C@H](C)CCCCC(=O)N[C@@H](CCN)C(=O)N[C@H](C(=O)N[C@@H](CCN)C(=O)N[C@H]1CCNC(=O)[C@H]([C@@H](C)O)NC(=O)[C@H](CCN)NC(=O)[C@H](CCN)NC(=O)[C@H](CC(C)C)NC(=O)[C@@H](Cc2ccccc2)NC(=O)[C@@H](CCN)NC1=O)[C@@H](C)O` (X1-[Dab]T[Dab][Dab][dDab][dF]L[Dab][Dab]T; lactam 4-C) here?
The inhibition was “Dose-dependent-effect”.

What about the inhibition (Escherichia coli [2]) of the same molecule?
Its inhibition is “Dose-dependent-effect”.

And the inhibition (Klebsiella pneumoniae [3])?
The inhibition was “Dose-dependent-effect”.

What about the inhibition (Pseudomonas aeruginosa [4]) of the same molecule?
Its inhibition is “Dose-dependent-effect”.

And the inhibition (Escherichia coli [5])?
The inhibition was “Active”.

And the inhibition (Escherichia coli [6])?
The inhibition was “Active”.

And the inhibition (Klebsiella pneumoniae [7])?
Its inhibition is “Active”.

What about the Activity (Cell membrane [8]) of the same molecule?
Its Activity is “Active”.

And the Activity (Escherichia coli [9])?
Its Activity is “inactive”.

What about the Activity (Cell membrane [10]) of the same molecule?
Its Activity is “Active”.

And the Activity (Klebsiella pneumoniae [11])?
Its Activity is “Active”.

What about the Activity (Klebsiella pneumoniae [12]) of the same molecule?
Its Activity is “Active”.

And the Activity (Klebsiella pneumoniae [13])?
The Activity was “Active”.

And the Activity (Klebsiella pneumoniae [14])?
The Activity was “Active”.

What does the source list for `CC(C)CCCCC(=O)N[C@@H](CCN)C(=O)N[C@H](C(=O)N[C@@H](CCN)C(=O)N[C@H]1CCNC(=O)[C@H]([C@@H](C)O)NC(=O)[C@H](CCN)NC(=O)[C@H](CCN)NC(=O)[C@H](CC(C)C)NC(=O)[C@@H](Cc2ccccc2)NC(=O)[C@H](CCN)NC1=O)[C@@H](C)O.CC[C@H](C)CCCCC(=O)N[C@@H](CCN)C(=O)N[C@H](C(=O)N[C@@H](CCN)C(=O)N[C@H]1CCNC(=O)[C@H]([C@@H](C)O)NC(=O)[C@H](CCN)NC(=O)[C@H](CCN)NC(=O)[C@H](CC(C)C)NC(=O)[C@@H](Cc2ccccc2)NC(=O)[C@H](CCN)NC1=O)[C@@H](C)O` (X1-[Dab]T[Dab][Dab][Dab][dF]L[Dab][Dab]T; lactam 4-C) [listing 1 of 2 here]?
MIC (Staphylococcus aureus [15]): 8 µM; MIC (Bacillus subtilis): 4 µM; MIC [16]: 8 µM; MIC (Klebsiella pneumoniae [17]): 2 µM; MIC (Escherichia coli [18]): 2 µM; MIC (Pseudomonas aeruginosa [19]): 2 µM; fold change (FC) (Staphylococcus aureus [20]): -4; fold change (FC) (Staphylococcus aureus [21]): -2; fold change (FC) (Staphylococcus aureus [22]): -2; fold change (FC) (Pseudomonas aeruginosa [23]): 8; fractional inhibitory concentration index (FICI) (Staphylococcus aureus [24]): 0.75; Activity (Klebsiella pneumoniae [25]): 100%; fractional inhibitory concentration index (FICI) (Staphylococcus aureus [26]): 0.5; fractional inhibitory concentration index (FICI) (Escherichia coli [27]): 0.313; fractional inhibitory concentration index (FICI) (Escherichia coli [28]): 0.313; fractional inhibitory concentration index (FICI) (Klebsiella pneumoniae [29]): 0.563; fractional inhibitory concentration index (FICI) (Klebsiella pneumoniae [30]): 0.375; fractional inhibitory concentration index (FICI) (Pseudomonas aeruginosa [31]): 0.313; fractional inhibitory concentration index (FICI) (Pseudomonas aeruginosa [32]): 0.313; fractional inhibitory concentration index (FICI) (Pseudomonas aeruginosa [33]): 0.188; Activity (Klebsiella pneumoniae [34]): 1.48 10^8CFU/g; Activity (Klebsiella pneumoniae [35]): 2.46 10^8CFU/g

Which LD50 [36] does the source give for `CC(C)CCCCC(=O)N[C@@H](CCN)C(=O)N[C@H](C(=O)N[C@@H](CCN)C(=O)N[C@H]1CCNC(=O)[C@H]([C@@H](C)O)NC(=O)[C@H](CCN)NC(=O)[C@H](CCN)NC(=O)[C@H](CC(C)C)NC(=O)[C@@H](Cc2ccccc2)NC(=O)[C@H](CCN)NC1=O)[C@@H](C)O.CC[C@H](C)CCCCC(=O)N[C@@H](CCN)C(=O)N[C@H](C(=O)N[C@@H](CCN)C(=O)N[C@H]1CCNC(=O)[C@H]([C@@H](C)O)NC(=O)[C@H](CCN)NC(=O)[C@H](CCN)NC(=O)[C@H](CC(C)C)NC(=O)[C@@H](Cc2ccccc2)NC(=O)[C@H](CCN)NC1=O)[C@@H](C)O` (X1-[Dab]T[Dab][Dab][Dab][dF]L[Dab][Dab]T; lactam 4-C) [listing 2 of 2 here] here?
Its LD50 is 17.9 mg/kg.

What about the Activity [37] of the same molecule?
The Activity was “Toxic”.

What about the Activity [38] of the same molecule?
Its Activity is “Toxic”.

What about the Activity [39] of the same molecule?
Its Activity is “Toxic”.

And the Activity [40]?
The Activity was “Toxic”.
